Experimental data published in patent publication US10112937B2, “P2X7 modulators and methods of use” (Janssen Pharmaceutica NV, priority 2013, dated 2018).

Assays:
Format in all cases: cell-based
human P2X7 [1] = biological target: T1, human P2X7 (Homo sapiens (Human), UniProt Q99572); assay: P2X7 antagonism in human PBMCs (IL-1β release after LPS + Bz-ATP, ELISA); settings: human PBMCs
rat P2X7 = rat P2X7 (Rattus norvegicus (Rat), UniProt Q64663); assay: Ca2+ flux (FLIPR) in 1321N1 cells expressing recombinant rat P2X7;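 note: Calcium-4 dye fluorescence change read 180 s after agonist addition, with cells preincubated 30 min with compound and dye in 96-well plates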
rat P2X7, sequence (Q64663 whole entry): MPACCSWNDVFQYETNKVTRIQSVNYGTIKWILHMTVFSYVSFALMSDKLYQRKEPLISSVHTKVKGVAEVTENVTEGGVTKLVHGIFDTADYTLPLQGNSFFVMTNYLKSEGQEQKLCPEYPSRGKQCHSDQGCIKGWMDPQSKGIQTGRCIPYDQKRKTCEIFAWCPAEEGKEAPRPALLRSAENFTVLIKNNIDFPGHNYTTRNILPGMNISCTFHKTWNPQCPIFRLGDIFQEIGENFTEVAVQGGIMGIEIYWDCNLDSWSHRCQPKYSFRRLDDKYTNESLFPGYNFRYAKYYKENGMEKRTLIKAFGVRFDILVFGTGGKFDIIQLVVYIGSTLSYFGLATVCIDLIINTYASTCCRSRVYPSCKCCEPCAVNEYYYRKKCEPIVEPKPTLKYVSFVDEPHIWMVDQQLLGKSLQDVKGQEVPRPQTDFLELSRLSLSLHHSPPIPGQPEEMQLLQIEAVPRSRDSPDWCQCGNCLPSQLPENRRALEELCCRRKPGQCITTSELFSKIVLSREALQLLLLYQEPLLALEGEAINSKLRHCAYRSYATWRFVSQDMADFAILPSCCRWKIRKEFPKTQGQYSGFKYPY
Method: (§1) P2X7 Antagonism in Recombinant Human P2X7 Cells or Recombinant Rat P2X7 Cells: (a) Ca^2+ Flux and (b) Radioligand Binding
(§2) 1321N1 cells expressing the recombinant human or rat P2X7 channel was cultured in HyQ DME/(HyClone/Dulbecco's Modified Eagle Medium) high glucose supplemented with 10% Fetal Bovine Serum (FBS) and appropriate selection marker. Cells were seeded at a density of 25000 cells/well (96-well clear bottom black walled plates) in 100 μl volume/well. On the day of the experiment, cell plates were washed with assay buffer, containing (in mM): 130 NaCl, 2 KCl, 1 CaCl2, 1 MgCl2, 10 HEPES, 5 glucose; pH 7.40 and 300 mOs. After the wash, cells were loaded with the Calcium-4 dye (Molecular Device) and incubated in the dark for 60 minutes. Test compounds were prepared at 250× the test concentration in neat DMSO. Intermediate 96-well compound plates were prepared by transferring 1.2 μL of the compound into 300 μL of assay buffer. A further 3× dilution occurred when transferring 50 μL/well of the compound plate to 100 μL/well in the cell plate. Cells were incubated with test compounds and dye for 30 minutes. […] The fluorescence change was measured 180 seconds after adding the agonist.

human P2X7 [2] = biological target: T1, human P2X7; assay: Ca2+ flux (FLIPR) in 1321N1 cells expressing recombinant human P2X7;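 note: cells loaded with Calcium-4 dye, preincubated with test compound for 30 min, fluorescence change read 180 s after agonist addition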
Method: as §1, §2

[3] = 1321N1 cells, recombinant rat P2X7, 250 μM BzATP
[4] = 1321N1 cells, recombinant human P2X7, 250 μM BzATP
[5] = 10 μM test compound, LPS + Bz-ATP
[6] = Ca2+ flux, 250 μM BzATP, rat P2X7 1321N1 cells
[7] = Ca2+ flux, 250 μM BzATP, human P2X7 1321N1 cells

T1 sequence (Q99572 whole entry): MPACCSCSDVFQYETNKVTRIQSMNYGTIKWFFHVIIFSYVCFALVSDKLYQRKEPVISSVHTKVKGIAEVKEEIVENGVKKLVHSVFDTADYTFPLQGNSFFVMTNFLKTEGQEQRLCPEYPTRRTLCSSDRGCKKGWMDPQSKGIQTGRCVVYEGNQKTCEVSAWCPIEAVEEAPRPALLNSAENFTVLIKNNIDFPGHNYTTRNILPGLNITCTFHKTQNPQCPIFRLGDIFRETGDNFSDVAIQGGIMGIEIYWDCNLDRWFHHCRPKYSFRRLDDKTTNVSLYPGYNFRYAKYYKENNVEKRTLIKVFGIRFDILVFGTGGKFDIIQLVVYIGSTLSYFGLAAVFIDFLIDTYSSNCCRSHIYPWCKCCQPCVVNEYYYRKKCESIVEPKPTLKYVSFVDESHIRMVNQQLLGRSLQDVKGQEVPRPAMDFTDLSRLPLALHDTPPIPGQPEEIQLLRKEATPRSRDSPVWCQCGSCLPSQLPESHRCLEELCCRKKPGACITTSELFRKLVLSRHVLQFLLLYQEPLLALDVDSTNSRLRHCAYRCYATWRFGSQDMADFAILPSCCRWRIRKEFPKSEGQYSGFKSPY

Compound	PBMC 10 μM (% control) (human P2X7 [1]; test compound 10 μM)	IC50 (rat P2X7; [3])	IC50 (human P2X7 [2]; [4])	PBMC 10 μM (% control) (human P2X7 [1]; [5])	IC50 (rat P2X7; [6])	IC50 (human P2X7 [2]; [7])
O=C(c1cccc(C(F)(F)F)c1F)N1CCc2c(nnn2-c2ncccn2)C1 [Example 66, 5-{[2-Fluoro-3-(trifluoromethyl)phenyl]carbonyl}-1-pyrimidin-2-yl-4,5,6,7-tetrahydro-1H-[1,2,3]triazolo[4,5-c]pyridine]	2.7 % control	258 nM	22.4 nM			
O=C(c1cccc(Cl)c1Cl)N1CCc2c(nnn2-c2ncccn2)C1 [Example 67, 5-[(2,3-Dichlorophenyl)carbonyl]-1-pyrimidin-2-yl-4,5,6,7-tetrahydro-1H-[1,2,3]triazolo[4,5-c]pyridine]	6.5 % control	53 nM	2 nM			
O=C(c1cccc(C(F)(F)F)c1Cl)N1CCc2c(nnn2-c2cc(F)ccn2)C1 [Example 131, (2-Chloro-3-(trifluoromethyl)phenyl)(1-(4-fluoropyridin-2-yl)-6,7-dihydro-1H-[1,2,3]triazolo[4,5-c]pyridin-5(4H)-yl)methanone]	8.3 % control	30.4 nM	2.1 nM			
O=C(c1ccc(Cl)cc1F)N1CCc2c(nnn2-c2ncccn2)C1 [Example 280, (4-chloro-2-fluorophenyl)(1-(pyrimidin-2-yl)-6,7-dihydro-1H-[1,2,3]triazolo[4,5-c]pyridin-5(4H)-yl)methanone]	3.4 % control	1350 nM	255 nM			
Cc1c(C(=O)N2CCc3c(nnn3-c3ncccn3)C2)cccc1C(F)(F)F [Example 281, (2-methyl-3-(trifluoromethyl)phenyl)(1-(pyrimidin-2-yl)-6,7-dihydro-1H-[1,2,3]triazolo[4,5-c]pyridin-5(4H)-yl)methanone]	−1.9 % control	349 nM	2.2 nM			
Cc1cc(-n2nnc3c2CCN(C(=O)c2cc(C(F)(F)F)ccc2Cl)C3C)ncc1F (stereo not drawn) [Example 352, (2-chloro-5-(trifluoromethyl)phenyl)(1-(5-fluoro-4-methylpyridin-2-yl)-4-methyl-6,7-dihydro-1H-[1,2,3]triazolo[4,5-c]pyridin-5(4H)-yl)methanone]	98.2 % control	> 10000 nM	> 10000 nM			
Cc1cc(-n2nnc3c2CCN(C(=O)c2cc(Cl)cc(C(F)(F)F)c2)C3C)ncc1F (stereo not drawn) [Example 361, (3-chloro-5-(trifluoromethyl)phenyl)(1-(5-fluoro-4-methylpyridin-2-yl)-4-methyl-6,7-dihydro-1H-[1,2,3]triazolo[4,5-c]pyridin-5(4H)-yl)methanone]	75.3 % control	> 10000 nM	> 10000 nM			
Cc1ccnc(-n2nnc3c2CCN(C(=O)c2cccc(OC(F)(F)F)c2F)C3C)c1 (stereo not drawn) [Example 373, (2-fluoro-3-(trifluoromethoxy)phenyl)(4-methyl-1-(4-methylpyridin-2-yl)-6,7-dihydro-1H-[1,2,3]triazolo[4,5-c]pyridin-5(4H)-yl)methanone]	17.2 % control	10100 nM	1660 nM			
Cc1cc(-n2nnc3c2CCN(C(=O)c2cccc(OC(F)(F)F)c2F)C3C)ncc1F (stereo not drawn) [Example 374, (2-fluoro-3-(trifluoromethoxy)phenyl)(1-(5-fluoro-4-methylpyridin-2-yl)-4-methyl-6,7-dihydro-1H-[1,2,3]triazolo[4,5-c]pyridin-5(4H)-yl)methanone]	104.3 % control	> 10000 nM	> 10000 nM			
CC1c2nnn(-c3ncc[nH]3)c2CCN1C(=O)c1cccc(Cl)c1Cl (stereo not drawn) [Example 384, (1-(1H-imidazol-2-yl)-4-methyl-6,7-dihydro-1H-[1,2,3]triazolo[4,5-c]pyridin-5(4H)-yl)(2,3-dichlorophenyl)methanone]	−6.3 % control	> 10000 nM	1380 nM			
Cc1cc(-n2nnc3c2CCN(C(=O)c2cccc(C(F)(F)F)c2F)C3C)ncn1 (stereo not drawn) [Example 396, (2-fluoro-3-(trifluoromethyl)phenyl)(4-methyl-1-(6-methylpyrimidin-4-yl)-6,7-dihydro-1H-[1,2,3]triazolo[4,5-c]pyridin-5(4H)-yl)methanone]	23.0 % control	> 10000 nM	9770 nM			
Cc1nccc(-n2nnc3c2CCN(C(=O)c2cccc(C(F)(F)F)c2Cl)C3C)n1 (stereo not drawn) [Example 398, (2-chloro-3-(trifluoromethyl)phenyl)(4-methyl-1-(2-methylpyrimidin-4-yl)-6,7-dihydro-1H-[1,2,3]triazolo[4,5-c]pyridin-5(4H)-yl)methanone]	0.2 % control	> 10000 nM	538 nM			
Cc1nccc(-n2nnc3c2CCN(C(=O)c2ccnc(C(F)(F)F)c2Cl)C3C)n1 (stereo not drawn) [Example 399, (3-chloro-2-(trifluoromethyl)pyridin-4-yl)(4-methyl-1-(2-methylpyrimidin-4-yl)-6,7-dihydro-1H-[1,2,3]triazolo[4,5-c]pyridin-5(4H)-yl)methanone]	1.1 % control	> 10000 nM	1720 nM			
Cc1nccc(-n2nnc3c2CCN(C(=O)c2cccc(C(F)(F)F)c2F)C3C)n1 (stereo not drawn) [Example 400, (2-fluoro-3-(trifluoromethyl)phenyl)(4-methyl-1-(2-methylpyrimidin-4-yl)-6,7-dihydro-1H-[1,2,3]triazolo[4,5-c]pyridin-5(4H)-yl)methanone]	32.0 % control	> 10000 nM	16900 nM			
Cc1cc(-n2nnc3c2CCN(C(=O)c2ccnc(C(F)(F)F)c2Cl)C3C)ncn1 (stereo not drawn) [Example 403, (3-chloro-2-(trifluoromethyl)pyridin-4-yl)(4-methyl-1-(6-methylpyrimidin-4-yl)-6,7-dihydro-1H-[1,2,3]triazolo[4,5-c]pyridin-5(4H)-yl)methanone]	−0.2 % control	12500 nM	436 nM			
CCn1ccc(-n2nnc3c2CCN(C(=O)c2cccc(C(F)(F)F)c2Cl)[C@H]3C)n1 [Example 405, (S)-(2-chloro-3-(trifluoromethyl)phenyl)(1-(1-ethyl-1H-pyrazol-3-yl)-4-methyl-6,7-dihydro-1H-[1,2,3]triazolo[4,5-c]pyridin-5(4H)-yl)methanone]				−0.4 % control	2300 nM	1600 nM
CCn1ccc(-n2nnc3c2CCN(C(=O)c2ccnc(C(F)(F)F)c2F)[C@H]3C)n1 [Example 409, (S)-(1-(1-ethyl-1H-pyrazol-3-yl)-4-methyl-6,7-dihydro-1H-[1,2,3]triazolo[4,5-c]pyridin-5(4H)-yl)(3-fluoro-2-(trifluoromethyl)pyridin-4-yl)methanone]				0.5 % control	18.4 nM	28.9 nM
CC(C)n1ccc(-n2nnc3c2C[C@H](C)N(C(=O)c2cccc(C(F)(F)F)c2Cl)C3)n1 [Example 412, (S)-(2-chloro-3-(trifluoromethyl)phenyl)(1-(1-isopropyl-1H-pyrazol-3-yl)-6-methyl-6,7-dihydro-1H-[1,2,3]triazolo[4,5-c]pyridin-5(4H)-yl)methanone]				−12.6 % control	4.1 nM	28.3 nM
CC(C)n1ccc(-n2nnc3c2C[C@H](C)N(C(=O)c2cccc(C(F)(F)F)c2F)C3)n1 [Example 414, (S)-(2-fluoro-3-(trifluoromethyl)phenyl)(1-(1-isopropyl-1H-pyrazol-3-yl)-6-methyl-6,7-dihydro-1H-[1,2,3]triazolo[4,5-c]pyridin-5(4H)-yl)methanone]				22.4 % control	36600 nM	> 10000 nM
CC(C)n1ccc(-n2nnc3c2CCN(C(=O)c2cccc(C(F)(F)F)c2F)[C@H]3C)n1 [Example 415, (S)-(2-fluoro-3-(trifluoromethyl)phenyl)(1-(1-isopropyl-1H-pyrazol-3-yl)-4-methyl-6,7-dihydro-1H-[1,2,3]triazolo[4,5-c]pyridin-5(4H)-yl)methanone]				1.5 % control	12.9 nM	146 nM
CC(C)n1ccc(-n2nnc3c2C[C@H](C)N(C(=O)c2ccnc(C(F)(F)F)c2Cl)C3)n1 [Example 416, (S)-(3-chloro-2-(trifluoromethyl)pyridin-4-yl)(1-(1-isopropyl-1H-pyrazol-3-yl)-6-methyl-6,7-dihydro-1H-[1,2,3]triazolo[4,5-c]pyridin-5(4H)-yl)methanone]				1.9 % control	8.1 nM	47.3 nM
CC(C)n1ccc(-n2nnc3c2CCN(C(=O)c2ccnc(C(F)(F)F)c2F)[C@H]3C)n1 [Example 419, (S)-(3-fluoro-2-(trifluoromethyl)pyridin-4-yl)(1-(1-isopropyl-1H-pyrazol-3-yl)-4-methyl-6,7-dihydro-1H-[1,2,3]triazolo[4,5-c]pyridin-5(4H)-yl)methanone]				−0.4 % control	15.7 nM	92 nM
C[C@H]1c2nnn(-c3ccsc3)c2CCN1C(=O)c1cccc(C(F)(F)F)c1Cl [Example 421, (S)-(2-chloro-3-(trifluoromethyl)phenyl)(4-methyl-1-(thiophen-3-yl)-6,7-dihydro-1H-[1,2,3]triazolo[4,5-c]pyridin-5(4H)-yl)methanone]				−1.4 % control	> 10000 nM	1030 nM
C[C@H]1Cc2c(nnn2-c2ncc(F)cn2)CN1C(=O)c1cccc(C(F)(F)F)c1O [Example 426, (S)-(1-(5-fluoropyrimidin-2-yl)-6-methyl-6,7-dihydro-1H-[1,2,3]triazolo[4,5-c]pyridin-5(4H)-yl)(2-hydroxy-3-(trifluoromethyl)phenyl)methanone]				113.2 % control	> 10000 nM	> 10000 nM
